Patent publication US20250368629A1, “FLAVONOID COMPOUNDS AND METHODS AND MATERIALS FOR USING FLAVONOID COMPOUNDS TO TREAT FIBROTIC CONDITIONS” (Mayo Foundation for Medical Education and Research, priority 2022, published 2025)

How the values were obtained:
DRAK1 = molecular target: T1, DRAK1 (Homo sapiens, UniProt Q9UEE5); assay: DRAK1 kinase activity assay (radiolabeled ATP, Reaction Biology); type: biochemical; settings: FIG. 30
T1 construct: purchased Reaction Biology
T1 sequence (Q9UEE5 1-414): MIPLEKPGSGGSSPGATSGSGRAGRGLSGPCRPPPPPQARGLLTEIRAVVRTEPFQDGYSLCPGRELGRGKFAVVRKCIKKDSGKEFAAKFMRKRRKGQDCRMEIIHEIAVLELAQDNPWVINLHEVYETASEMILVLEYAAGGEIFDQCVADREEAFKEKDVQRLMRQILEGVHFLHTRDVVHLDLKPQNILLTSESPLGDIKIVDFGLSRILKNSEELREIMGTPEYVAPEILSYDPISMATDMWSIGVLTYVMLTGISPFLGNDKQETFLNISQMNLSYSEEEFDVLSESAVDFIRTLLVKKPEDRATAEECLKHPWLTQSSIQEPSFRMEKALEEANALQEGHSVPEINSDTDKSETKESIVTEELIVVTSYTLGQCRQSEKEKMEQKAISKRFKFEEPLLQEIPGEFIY
Description: DRAK1 kinase activity was also assessed. […] A DRAK1 kinase activity was performed by Reaction Biology. DRAK1 kinase activity was measured and plotted (FIG. 30).

[1] = Microsomal stability, mouse liver derived microsomes; type: in vitro ADME
Description: The microsomal stability of F-4N was also assessed (FIG. 28). Compounds were incubated with human or mouse liver derived microsomes. The percent of F-4N recovered was analyzed by LC-MS. Verapamil was used as a control for a rapidly degraded compound. Analysis was performed by Cyprotex (Framingham, MA).

[2] = Levels of unbound compound in plasma and liver of mice (LC-MS); type: in vivo, mouse; settings: 2 hours and 8 hours after the final dose, oral gavage 7 days
Description: Levels of F-4N in the plasma and liver of mice following F-4N exposure were examined (FIG. 26). Plasma and liver tissue was collected 2 hours and 8 hours after the final dose from the mice subjected to the protocol described in FIG. 24A. Levels of unbound (free) F-4N were analyzed by Cyprotex (Framingham, MA) using LC-MS.

STK17A = molecular target: T2, STK17A (Homo sapiens, UniProt Q9UEE5); assay: Kinase dose response curve on STK17A; type: biochemical; settings: FIG. 4A, read-out: half maximal inhibitory concentration (IC50) on STK17A
T2 construct: purchased Reaction Biology
T2 sequence (Q9UEE5 1-414): T1 sequence (Q9UEE5 1-414)
Description: (§1) FIGS. 4A-4B show mechanism of action of F-4N. […] Dose response curves on STK17A and STK17B show half maximal inhibitory concentration (IC50) values of ˜200 nM. […] FIG. 4A. F-4N was sent to Reaction Biology to be tested against their entire wild-type kinase panel. 1 μM F-4N was tested in an ATP competition assay against 420+ kinases. Z-scores were calculated to identify true hits over noise.

STK17B = molecular target: T3, STK17B (Homo sapiens, UniProt O94768); assay: Kinase dose response curve on STK17B; type: biochemical; settings: FIG. 4A, read-out: half maximal inhibitory concentration (IC50) on STK17B
T3 construct: purchased Reaction Biology
T3 sequence (O94768 1-372): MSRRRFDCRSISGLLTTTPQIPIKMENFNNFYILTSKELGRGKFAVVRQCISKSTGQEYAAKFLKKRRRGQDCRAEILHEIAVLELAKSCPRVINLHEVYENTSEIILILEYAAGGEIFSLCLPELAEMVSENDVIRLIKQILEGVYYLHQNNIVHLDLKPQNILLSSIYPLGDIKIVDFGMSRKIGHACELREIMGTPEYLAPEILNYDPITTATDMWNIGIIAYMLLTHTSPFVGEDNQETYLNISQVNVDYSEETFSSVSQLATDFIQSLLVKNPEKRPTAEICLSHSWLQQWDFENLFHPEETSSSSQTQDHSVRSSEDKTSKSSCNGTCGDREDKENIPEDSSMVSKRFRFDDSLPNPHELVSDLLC
Description: as §1

[3] = system: 10-18-month-old C57/B6 mice; assay: Non-resolving model of lung fibrosis (bleomycin, aged mice); type: in vivo, mouse
Description: FIG. 3. Lung fibrosis was induced in 10-18-month-old C57/B6 mice (average ˜15-months) using intratracheal bleomycin (1.1 units/kg) on day 0 of the study. On day 14 one group was administered F-4N (10 mg/kg daily i.p.) for 14 days prior to harvesting the lung for outcomes and senescence clearance and fibrosis. Lung architecture and fibrosis were observed by trichome histological staining and hydroxyproline content. Hydroxyproline content was measured using a hydroxyproline assay kit (Biovision) according to the manufacturer's instructions with slight modification. The lung tissues were weighed, homogenized in sterile water (10 mg of tissue per 100 μL H2O) and hydrolyzed in 12 M HCl in a pressure-tight, Teflon capped vial at 120° C. for 3 hours followed by filtration through a 45 μm Spin-X Centrifuge Tube filter (Corning). Ten μL of the hydrolyzed samples was dried in a Speed-Vac for 2 hours, followed by incubation with 100 μL of Chloramine T reagent for 5 minutes at room temperature and 100 μL of 4-(Dimethylamino)benzaldehyde (DMAB) for 90 minutes at 60° C. The absorbance of oxidized hydroxyproline was determined at 560 nm. Hydroxyproline concentrations were calculated from a standard curve generated using known concentrations of trans-4-hydroxyl-L-proline. The total amount of protein isolated from the weighed tissues was determined by using a protein assay kit (Bio-Rad, absorbance at 595 nm). The amount of collagen was expressed in μg/mg total protein. qPCR: RNA isolation using RNeasy Plus Mini Kit (Qiagen) according to the manufacturer's instructions. Isolated RNA (250 ng) was then used to synthesize cDNA using SuperScript VILO (Invitrogen). Quantitative PCR was performed using FastStart Essential DNA Green Master (Roche) and analyzed using a LightCycler 96 (Roche). Data are expressed as a fold change by ΔΔCt relative to glyceraldehyde-3-phosphate dehydrogenase (GAPDH).

Mdr2-/- mice = assay: Mdr2-/- mouse model of PSC with established liver fibrosis, oral treatment; type: in vivo; settings: 4 weeks
From the text: 20 Mdr2^−/− mice (10 males, 10 females) approximately 7 months old with established liver fibrosis were assigned to receive either F-4N or vehicle ([…]) for 4 weeks. At the end of treatment, mice were sacrificed, and livers were collected to assess liver inflammation and fibrosis.

[4] = 10 mg/kg daily i.p. for 14 days
[5] = 10 mg/kg daily i.p. for 14 days, qPCR

O=c1c(O)c(-c2ccc(OCc3ccncc3)cc2)oc2ccccc12 [F—4N]
DRAK1 kinase activity (DRAK1): can inhibit
microsomal stability: half-life and clearance rate [1]: in line with many clinically approved orally administered drugs
levels of unbound (free) compound in plasma and liver [2]: higher in liver than plasma
IC50 (STK17A): ~200 nM
IC50 (STK17B): ~200 nM
fibrosis and lung architecture by trichrome histological staining [3, 4]: less fibrosis and improved lung architecture
lung hydroxyproline content [3, 4]: reduced
whole lung expression of Collagen I [3, 5]: reduced expression
whole lung expression of senescence markers (Cdkn2a, Cdkn1a, Ccl2) [3, 5]: reduced expression
survival following bleomycin-induced fibrosis ([3]; 10 mg/kg daily i.p. from day 14): improved survival
expression of fibrogenic genes in the liver (Mdr2-/- mice; oral delivery): reduced expression
liver fibrosis, especially parenchymal (bridging) fibrosis (Mdr2-/- mice; oral delivery): Improvement of liver fibrosis
tissue markers of liver inflammation and senescence (Mdr2-/- mice; oral delivery): Significant reduction
liver mass (Mdr2-/- mice; oral treatment): reduced
